# Measured values published in PubChem BioAssay AID330 (DTP/NCI, 2004).
# “And” between values parts separate entries of the source, which are not always exact repeats. Equal values may be shown once. Inconclusive results and toxic doses are left out.
# Test system: P388 leukemia ip, CD2F1 mice, survival T/C
# Experiment: NCI In Vivo Anticancer Drug Screen. Data for tumor model P388 Leukemia (intraperitoneal) in CD2F1 (CDF1) mice
# Conditions: endpoint: median survival time, higher = longer survival
# Procedure, shortened: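 Mice carrying the transplanted tumor received test compound or vehicle. Survival was recorded in each group, and the value is the treated-group measurement divided by that of the vehicle-treated control group.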
# [1] = dose: 50.0 mg/kg/injection, schedule: Q01DX009 (ip), vehicle: saline with Tween-80
# [2] = dose: 100.0 mg/kg/injection, schedule: Q04DX003 (ip), vehicle: saline
# [3] = dose: 200.0 mg/kg/injection, schedule: Q04DX003 (ip), vehicle: saline
# [4] = dose: 50.0 mg/kg/injection, schedule: Q01DX009 (ip), vehicle: saline
# [5] = dose: 100.0 mg/kg/injection, schedule: Q01DX001 (ip), vehicle: saline with Tween-80
# [6] = dose: 200.0 mg/kg/injection, schedule: Q01DX001 (ip), vehicle: saline with Tween-80
# [7] = dose: 400.0 mg/kg/injection, schedule: Q01DX001 (ip), vehicle: saline with Tween-80
# [8] = dose: 50.0 mg/kg/injection, schedule: Q01DX005 (ip), vehicle: Klucel (hydroxypropylcellulose) (HPC)
structure (smiles),measurement,setting,value
O=S1(=O)CCC(c2ccccc2)C1 (stereo not drawn),T/C,"dose: 12.5 mg/kg/injection, schedule: Q01DX009 (ip), vehicle: saline with Tween-80",100 % of control
same,T/C,"dose: 25.0 mg/kg/injection, schedule: Q01DX009 (ip), vehicle: saline with Tween-80",105 % of control
same,T/C,[1],97 % of control
Cc1ccc(S(=O)(=O)ON/N=c2\ccn(C)c3ccccc23)cc1,T/C,[2],101 % of control
same,T/C,[3],99 % of control
same,T/C,"dose: 400.0 mg/kg/injection, schedule: Q04DX003 (ip), vehicle: saline",99 % of control
CCOC(=O)CS(=O)(=O)CCCS(=O)(=O)CC(=O)OCC,T/C,[4],97 % of control
same,T/C,"dose: 100.0 mg/kg/injection, schedule: Q01DX009 (ip), vehicle: saline",96 % of control
same,T/C,"dose: 200.0 mg/kg/injection, schedule: Q01DX009 (ip), vehicle: saline",94 % of control
CCOc1ccccc1C(=O)Nc1cc(C)nn1-c1ccccc1,T/C,[5],102 % of control
same,T/C,[6],100 % of control
same,T/C,[7],106 % of control
CC1CN1C(=O)c1cc(C(=O)N2CC2C)cc(C(=O)N2CC2C)c1 (stereo not drawn),T/C,"dose: 6.25 mg/kg/injection, schedule: Q01DX009 (ip), vehicle: saline with Tween-80",113 % of control
CC(C)NCCO,T/C,[4],100 % of control
same,T/C,"dose: 50.0 mg/kg/injection, schedule: Q04DX003 (ip), vehicle: saline",100 % of control
same,T/C,[2],109 % of control
same,T/C,[3],109 % of control
OCC1OC(n2cnc3c(Br)ncnc32)C(O)C1O (stereo not drawn),T/C,"dose: 50.0 mg/kg/injection, schedule: Q01DX005 (ip), vehicle: saline with Tween-80",91 % of control
same,T/C,"dose: 100.0 mg/kg/injection, schedule: Q01DX005 (ip), vehicle: saline with Tween-80",98 % of control
same,T/C,"dose: 200.0 mg/kg/injection, schedule: Q01DX005 (ip), vehicle: saline with Tween-80",91 % of control
COc1ccc2c(c1)CSC(c1ccccc1)=C2,T/C,[1],100 % of control
same,T/C,"dose: 100.0 mg/kg/injection, schedule: Q01DX009 (ip), vehicle: saline with Tween-80",93 % of control
same,T/C,"dose: 200.0 mg/kg/injection, schedule: Q01DX009 (ip), vehicle: saline with Tween-80",94 % of control
same,T/C,"dose: 400.0 mg/kg/injection, schedule: Q01DX009 (ip), vehicle: saline with Tween-80",92 % of control
COc1ccc(C2c3cc(OC(C)=O)c(OC)cc3Oc3cc(OC)c(OC(C)=O)cc32)cc1,T/C,[8],96 % of control
same,T/C,"dose: 100.0 mg/kg/injection, schedule: Q01DX005 (ip), vehicle: Klucel (hydroxypropylcellulose) (HPC)",93 % of control
same,T/C,"dose: 200.0 mg/kg/injection, schedule: Q01DX005 (ip), vehicle: Klucel (hydroxypropylcellulose) (HPC)",87 % of control
Cc1ccc(S(=O)(=O)OI(C#CC(C)(C)C)c2ccccc2)cc1,T/C,"dose: 12.5 mg/kg/injection, schedule: Q01DX005 (ip), vehicle: Klucel (hydroxypropylcellulose) (HPC)",102 % of control
same,T/C,"dose: 25.0 mg/kg/injection, schedule: Q01DX005 (ip), vehicle: Klucel (hydroxypropylcellulose) (HPC)",102 % of control
same,T/C,[8],101 % of control and 117 % of control
CC(=O)[C-](I)C(C)=O.CC(=O)[C-](I)C(C)=O.CC(=O)[C-](I)C(C)=O.[Ru+3],T/C,"dose: 60.0 mg/kg/injection, schedule: Q01DX005 (ip), vehicle: Klucel (hydroxypropylcellulose) (HPC)",106 % of control
same,T/C,"dose: 120.0 mg/kg/injection, schedule: Q01DX005 (ip), vehicle: Klucel (hydroxypropylcellulose) (HPC)",106 % of control
same,T/C,"dose: 240.0 mg/kg/injection, schedule: Q01DX005 (ip), vehicle: Klucel (hydroxypropylcellulose) (HPC)",115 % of control
NCCCNCCCCNC(=O)C(O)NC(=O)CC(O)CCCCN=C(N)N (stereo not drawn),T/C,"dose: 6.25 mg/kg/injection, schedule: Q01DX005 (ip), vehicle: saline",152 % of control
same,T/C,"dose: 25.0 mg/kg/injection, schedule: Q01DX005 (ip), vehicle: saline",160 % of control
same,T/C,"dose: 50.0 mg/kg/injection, schedule: Q01DX005 (ip), vehicle: saline",150 % of control and 154 % of control
same,T/C,"dose: 100.0 mg/kg/injection, schedule: Q01DX005 (ip), vehicle: saline",156 % of control and 169 % of control
O=C1CS(=O)(=O)C(c2ccccn2)N1CCN1C(=O)CS(=O)(=O)C1c1ccccn1 (stereo not drawn),T/C,[5],100 % of control and 101 % of control
same,T/C,"dose: 100.0 mg/kg/injection, schedule: Q04DX002 (ip), vehicle: saline with Tween-80",90 % of control
same,T/C,[6],92 % of control and 97 % of control
same,T/C,"dose: 200.0 mg/kg/injection, schedule: Q04DX002 (ip), vehicle: saline with Tween-80",98 % of control
same,T/C,[7],89 % of control and 101 % of control
same,T/C,"dose: 400.0 mg/kg/injection, schedule: Q04DX002 (ip), vehicle: saline with Tween-80",91 % of control
